Each structure is given as a SMILES string.

The text below walks through data of patent US9127018B2, “Solid forms of ortataxel” (Indena S.p.A., priority 2008, dated 2015).

The nature of the data set: physical and chemical stability of the solid form. The data set is classed as physicochemical. The note with it: solid form prepared with traces of an organic acid (citric acid); storage conditions not given.

`CC(=O)O[C@H]1C(=O)[C@@]2(C)[C@H]([C@H](OC(=O)c3ccccc3)[C@]34OC(=O)O[C@H]3[C@H](OC(=O)[C@H](O)[C@H](CC(C)C)NC(=O)OC(C)(C)C)C(C)=C1C4(C)C)[C@]1(OC(C)=O)CO[C@@H]1C[C@@H]2O` [Form A, 13-(N-Boc-β-isobutylserinyl)-14-β-hydroxybaccatin III 1, 14-carbonate]: the “chemical and physical stability” value is “at least 36 months”.
